Assay results: US20110206608A1, “Pharmaceutical Composition Of A Radioiodinated Benzamide Derivative And Methods Of Making Same” (priority 2008, published 2011)
Entries after “also recorded” stand apart in the source; their conditions may differ. Read-outs that look alike come from different tables or passages of the source. Each block holds one compound with its values, some of them ahead of it.

Assays:
[1] = tested on: SK-MEL-3 tumor; assay: Effect on SK-MEL-3 tumor growth in mice; type: in vivo; details: 68 mCi/m^2
From the text: FIG. 6 illustrates the effect of ^131I-Cmpd A (68 mCi/m^2) on SK-MEL-3 tumor growth at various dose levels.
FIG. 7 illustrates the effect of ^131I-Cmpd A (68 mCi/m^2) on SK-MEL-3 tumor growth in mice at various dose levels. […] (Please note that animals were euthanized if tumor volume was>1500 mm^3).
Effects of ^131I-Cmpd A (68 mCi/m^2) on SK-MEL-3 tumor growth were investigated in mice. Saline and dacarbazine were used as references for the study. In this experiment, different batches of mice were administered a dose of 68 mCi/m^2 of ^131I-Cmpd A once a day, twice a day, and thrice a day. The treatment lasted for 125 days. The mice were euthanized if tumor volume was greater than 1500 mm^3. The treated mice were closely monitored and sacrificed if any signs of approaching death were shown. Tumor change (length and width of tumor) was monitored every few days.

[2] = tested on: B16F10 tumor; assay: Organ distribution and tumor accumulation in B16F10 tumor bearing mice; type: in vivo; details: for biodistribution (distribution properties): B16F10 tumor bearing mice, 1 hour and 24 hour after intravenous administration, FIG. 4
Method: FIG. 3 illustrates the biodistribution of ^131I-Cmpd B and ^131I-Cmpd BD in B16F10 bearing mice.
FIG. 4 illustrates the biodistribution of ^131I-Cmpd A, ^131I-Cmpd B, ^131I-Cmpd C, and ^131I-Cmpd D in B16F10 tumor bearing mice.
The organ distribution and tumor accumulation experiments were performed in B16F10 tumor bearing mice. At times indicated (1 hour and 24 hour) after intravenous administration of the substances, the animals were sacrificed, organs and tumors were removed, optionally dabbed dry, weighed, and measured for radioactive content in a calibrator with the corresponding isotope standard. The results are depicted as % of the injected dose/gm of tissue. FIG. 4 illustrates the biodistribution of ^131I-Cmpd A, ^131I-Cmpd B, ^131I-Cmpd C, and ^131I-Cmpd D in B16F10 tumor bearing mice.

[3] = Stability in ^131I-labeling, Tl(TFA)3/TFA iodination (Example 6-A); type: physicochemical; details: for chemical stability during the radioiodination: Tl(TFA)3/TFA iodination; for Identified impurity (%) / RCP (%): after ^131I-labeling with 2.5 mCi Na^131I
From the text: Purpose: ^131I-labeling yield and stability were compared side-by-side for (Compound C, Compound D and Compound A) together with Compound B (with or without addition of Dioxolane).
Results: The T1(TFA)3/TFA iodination method could be used for ^131I-Compound C, ^131I-Compound D and Compound A. Different from Compound B, there was almost no degraded impurities occurred during the labeling (^131I-Compound C, ^131I-Compound D or Compound A) at a radioactivity dose level of 2.5 mCi.

[4] = Stability post labelling in radiolysis protecting buffer, 3 days storage at RT (Example 6-B); type: physicochemical; details: for Free ^131I (%) / Identified impurity (%) / RCP (%): RT, radiolysis protecting buffer, ~11 mCi/mL
[5] = Tumor uptake and retention of ^123I-Compound B in B16 melanoma bearing mice; type: in vivo; details: mouse
From the text: Tumor uptake and retention of ^123I-Compound B in B16 melanoma bearing mice (% ID/g) was as shown in Table B. Those studies were done using the method disclosed in Eisenhut et al., J. Med. Chem. 2000, 43(21), 3913-22.

[6] = tested on: melanin; assay: melanin targeting / binding capacity in vitro and in vivo
[7] = Solubility over one week storage at RT, visual inspection and HPLC (Example 7-C); type: physicochemical; details: for HPLC measured conc. at 7 days: 3 mg/mL prepared, with 3% acetic acid; for aqueous solubility: comparison among the tested compounds
Method: Compound C and Compound D were dissolved in acetic acid first, and then with PEG400/ethanol; the solution was finally diluted in matrix into a final concentration of 3 mg/mL. The matrix included 3% sodium gentisate (w/v) and 6% ascorbic acid (w/v) (pH=3.6). The prepared sample solution was kept at RT and examined by visual inspection. The concentration of the tested compounds in the solution or in the supernatant was analyzed by HPLC.

[8] = Solubility at 3 mg/mL, dissolved in acetic acid, then PEG400/ethanol, then matrix, visual inspection (Example 7-B); type: physicochemical; details: 3% acetic acid, 30% PEG400, 2% ethanol, 6% ascorbic acid, 3% sodium gentisate, pH=3.6, RT
Method: The compounds were dissolved in acetic acid first, and then diluted with PEG400/ethanol; the solution was finally diluted in matrix into a final concentration of 3 mg/mL. The components of the matrix included 3% sodium gentisate (w/v) and 6% ascorbic acid (w/v) (pH=3.6). The prepared sample solution was kept at RT and examined by visual inspection.

[9] = tested on: B16 melanoma; details: B16 melanoma bearing C57BL/J1 mouse, cited from earlier work
[10] = protected with 10 μL of Dioxolane

Structure (SMILES): CCN(CC)CCNC(=O)c1cc([131I])c(NC(=O)c2ccc(F)cc2)cc1OC [Compound A, N-(2-(diethylamino)ethyl)-4-(4-fluoro-benzoylamino)-5-iodo-2-methoxybenzamide]
tumor growth (tumor change) ([1]; SK-MEL-3 tumor in mice, FIG. 6): reducing the tumor growth
survival of the mice ([1]; SK-MEL-3 tumor in mice, FIG. 7): increasing survival of the mice
response to treatment ([1]; human melanoma mouse xenograft model): complete response (CR) has been observed
biodistribution (distribution properties) [2]: desirable distribution properties
tumor uptake and retention ([2]; tumor bearing animal models): significant high tumor uptake and prolonged retention
chemical stability during the radioiodination [3]: stable

Structure (SMILES): CCN(CC)CCNC(=O)c1ccc([123I])cc1 [^123I-BZA]
tumor wash-out (% ID/g) ([9]; 1 h): 6.8 % ID/g
tumor wash-out (% ID/g) ([9]; 24 h): 0.8 % ID/g
tumor wash-out (% ID/g) ([9]; 72 h): 0.3 % ID/g

The next lines start with results.

biodistribution (distribution properties) [2]: desirable distribution properties
Free ^131I (%) ([4]; 0 day): 0.1%
Identified impurity (%) ([4]; 0 day): 10.3%
RCP (%) ([4]; 0 day): 89.5%
Free ^131I (%) ([4]; 3 day): 2.4%
Identified impurity (%) ([4]; 3 day): 8.8%
RCP (%) ([4]; 3 day): 88.6%
stability during the 3 days storage at RT post labeling ([4]; diluted in radiolysis protecting solution, Compound B vs Compound A): no significant difference in stability
tissue uptake at 1 h ([5]; 1 h): 14.8 %ID/g
tissue uptake at 5 h ([5]; 5 h): 22.7 %ID/g
tissue uptake at 48 h ([5]; 48 h): 16.6 %ID/g
chemical stability during the radioiodination [3]: poor chemical stability
Identified impurity (%) ([3]; Tl(TFA)3/TFA): 5.5%
RCP (%) ([3]; Tl(TFA)3/TFA): 90.3%
Identified impurity (%) [3, 10]: 2.3%
RCP (%) [3, 10]: 94.0%
Structure (SMILES): CCN(CC)CCNC(=O)c1cc(I)c(NC(=O)c2ccc3c(c2)OCO3)cc1OC [Compound B, benzo[1,3]dioxole-5-carboxylic acid [4-(2-diethylamino-ethylcarbamoyl)-2-iodo-5-methoxyphenyl]amide]
melanin targeting capacity [6]: found to have melanin targeting capacity both in vitro and in vivo

HPLC measured conc. at 7 days ([7]; RT, concentration in the supernatant): 0.23 mg/mL
Solution inspection at 7 days ([7]; 3 mg/mL, 3% acetic acid, 30% PEG400, 2% ethanol, 6% ascorbic acid, 3% sodium gentisate, RT): Precipitation**
biodistribution (distribution properties) [2]: desirable distribution properties
chemical stability during the radioiodination [3]: stable
Identified impurity (%) ([3]; Tl(TFA)3/TFA): 0%
RCP (%) ([3]; Tl(TFA)3/TFA): 97.1%
Solution inspection [8]: Clear solution
Structure (SMILES): CCN(CC)CCNC(=O)c1cc(I)c(NC(=O)c2ccc(Cl)cc2)cc1OC [Compound C, 4-(4-chlorobenzoylamino)-N-(2-(diethylamino)ethyl)-5-iodo-2-methoxybenzamide]
aqueous solubility [7]: poor aqueous solubility; also recorded: Compound A>Compound D>>Compound C
melanin targeting capacity [6]: found to have melanin targeting capacity both in vitro and in vivo

HPLC measured conc. at 7 days ([7]; RT): 2.89 mg/mL
biodistribution (distribution properties) [2]: desirable distribution properties
chemical stability during the radioiodination [3]: stable
Identified impurity (%) ([3]; Tl(TFA)3/TFA): 0%
RCP (%) ([3]; Tl(TFA)3/TFA): ~100%
Solution inspection [8]: Clear solution
Structure (SMILES): CCN(CC)CCNC(=O)c1cc(I)c(NC(=O)c2ccc(OC)cc2)cc1OC [Compound D, N-(2-diethylamino-ethyl)-5-iodo-2-methoxy-4-(4-methyoxybenzoylamino)benzamide]
aqueous solubility [7]: poor aqueous solubility; also recorded: Compound A>Compound D>>Compound C
melanin targeting capacity [6]: found to have melanin targeting capacity both in vitro and in vivo
